From PubChem BioAssay (NCI)
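Where inhibition never reached the appropriate level, the endpoint shown equals the highest concentration tested. Otherwise, values were interpolated linearly from a five-concentration, 48-hour dose response in 96-well plates. At the GI50, growth is halved. The concentration for full growth arrest is given as TGI.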

What was measured:
Assay in all cases: growth of human tumour cells (NCI), 48 h
SK-MEL-28 melanoma = tested on: SK-MEL-28 melanoma
U251 CNS = tested on: U251 CNS
RXF 393 renal = tested on: RXF 393 renal
ACHN renal = tested on: ACHN renal
SK-MEL-5 melanoma = tested on: SK-MEL-5 melanoma
A498 renal = tested on: A498 renal
NCI/ADR-RES ovarian = tested on: NCI/ADR-RES ovarian
SF-295 CNS = tested on: SF-295 CNS
SW-620 colon = tested on: SW-620 colon
NCI-H522 lung = tested on: NCI-H522 lung
IGROV1 ovarian = tested on: IGROV1 ovarian
T-47D breast = tested on: T-47D breast
A549 NSCLC = tested on: A549 NSCLC
MOLT-4 leukemia = tested on: MOLT-4 leukemia
NCI-H23 lung = tested on: NCI-H23 lung
OVCAR-8 ovarian = tested on: OVCAR-8 ovarian
OVCAR-3 ovarian = tested on: OVCAR-3 ovarian
M14 melanoma = tested on: M14 melanoma
PC-3 prostate = tested on: PC-3 prostate
SF-268 CNS = tested on: SF-268 CNS
SK-MEL-2 melanoma = tested on: SK-MEL-2 melanoma
HCT-15 colon = tested on: HCT-15 colon
BT-549 breast = tested on: BT-549 breast
CCRF-CEM leukemia = tested on: CCRF-CEM leukemia
MDA-MB-231 breast = tested on: MDA-MB-231 breast
HT29 colon = tested on: HT29 colon
SN12C renal = tested on: SN12C renal
HS 578T breast = tested on: HS 578T breast
CAKI-1 renal = tested on: CAKI-1 renal
MCF7 breast = tested on: MCF7 breast
LOX IMVI melanoma = tested on: LOX IMVI melanoma
OVCAR-5 ovarian = tested on: OVCAR-5 ovarian
MDA-MB-435 = tested on: MDA-MB-435
EKVX NSCLC = tested on: EKVX NSCLC
SNB-75 CNS = tested on: SNB-75 CNS
HCT-116 colon = tested on: HCT-116 colon
K-562 leukemia = tested on: K-562 leukemia
SNB-19 CNS = tested on: SNB-19 CNS
HL-60(TB) leukemia = tested on: HL-60(TB) leukemia
786-0 renal = tested on: 786-0 renal
SF-539 CNS = tested on: SF-539 CNS
HCC-2998 colon = tested on: HCC-2998 colon
NCI-H460 lung = tested on: NCI-H460 lung
HOP-92 NSCLC = tested on: HOP-92 NSCLC
SR leukemia = tested on: SR leukemia
NCI-H226 lung = tested on: NCI-H226 lung
UO-31 renal = tested on: UO-31 renal
HOP-62 NSCLC = tested on: HOP-62 NSCLC
TK-10 renal = tested on: TK-10 renal
DU-145 prostate = tested on: DU-145 prostate
MALME-3M melanoma = tested on: MALME-3M melanoma
UACC-257 melanoma = tested on: UACC-257 melanoma
KM12 colon = tested on: KM12 colon
RPMI-8226 leukemia = tested on: RPMI-8226 leukemia
UACC-62 melanoma = tested on: UACC-62 melanoma
SK-OV-3 ovarian = tested on: SK-OV-3 ovarian
OVCAR-4 ovarian = tested on: OVCAR-4 ovarian
COLO 205 colon = tested on: COLO 205 colon

Compound C#C[C@]1(O)CC[C@H]2[C@@H]3CC=C4c5sc(Nc6cccc(Cl)n6)nc5CC[C@]4(C)[C@H]3CC[C@@]21C has a GI50 (SK-MEL-28 melanoma) of 226 nM, a TGI (SK-MEL-28 melanoma) of 597 nM and a GI50 (U251 CNS) of 428 nM. It also gave a TGI (U251 CNS) of 2050 nM, a GI50 (RXF 393 renal) of 122 nM and a TGI (RXF 393 renal) of 349 nM. The GI50 (ACHN renal) was 856 nM, the TGI (ACHN renal) was 2930 nM and the GI50 (SK-MEL-5 melanoma) was 1650 nM. It also gave a TGI (SK-MEL-5 melanoma) of 3120 nM, a GI50 (A498 renal) of 897 nM and a TGI (A498 renal) of 2250 nM. For the same compound, the GI50 (NCI/ADR-RES ovarian) was 1820 nM, the TGI (NCI/ADR-RES ovarian) was 5570 nM and the GI50 (SF-295 CNS) was 205 nM. It also gave a TGI (SF-295 CNS) of 529 nM, a GI50 (SW-620 colon) of 1190 nM and a TGI (SW-620 colon) of 2570 nM. For the same compound, the GI50 (NCI-H522 lung) was 1710 nM, the TGI (NCI-H522 lung) was 3610 nM and the GI50 (IGROV1 ovarian) was 1610 nM. It also gave a TGI (IGROV1 ovarian) of 4470 nM, a GI50 (T-47D breast) of 1840 nM and a TGI (T-47D breast) of 5310 nM. For the same compound, the GI50 (A549 NSCLC) was 1200 nM, the TGI (A549 NSCLC) was 3550 nM and the GI50 (MOLT-4 leukemia) was 301 nM. For the same compound, the TGI (MOLT-4 leukemia) was 1170 nM, the GI50 (NCI-H23 lung) was 1610 nM and the TGI (NCI-H23 lung) was 4770 nM. For the same compound, the GI50 (OVCAR-8 ovarian) was 1460 nM, the TGI (OVCAR-8 ovarian) was 3630 nM and the GI50 (OVCAR-3 ovarian) was 1450 nM. For the same compound, the TGI (OVCAR-3 ovarian) was 3130 nM, the GI50 (M14 melanoma) was 491 nM and the TGI (M14 melanoma) was 1780 nM. It also gave a GI50 (PC-3 prostate) of 460 nM, a TGI (PC-3 prostate) of 3110 nM and a GI50 (SF-268 CNS) of 1540 nM. The TGI (SF-268 CNS) was 4650 nM, the GI50 (SK-MEL-2 melanoma) was 1190 nM and the TGI (SK-MEL-2 melanoma) was 3340 nM. For the same compound, the GI50 (HCT-15 colon) was 672 nM, the TGI (HCT-15 colon) was 2440 nM and the GI50 (BT-549 breast) was 903 nM. For the same compound, the TGI (BT-549 breast) was 2360 nM, the GI50 (CCRF-CEM leukemia) was 430 nM and the TGI (CCRF-CEM leukemia) was over 21100 nM. For the same compound, the GI50 (MDA-MB-231 breast) was 1060 nM, the TGI (MDA-MB-231 breast) was 2690 nM and the GI50 (HT29 colon) was 1430 nM. For the same compound, the TGI (HT29 colon) was 3600 nM, the GI50 (SN12C renal) was 1600 nM and the TGI (SN12C renal) was 3380 nM. For the same compound, the GI50 (HS 578T breast) was 338 nM, the TGI (HS 578T breast) was 1550 nM and the GI50 (CAKI-1 renal) was 819 nM. For the same compound, the TGI (CAKI-1 renal) was 2450 nM, the GI50 (MCF7 breast) was 550 nM and the TGI (MCF7 breast) was 2400 nM. The GI50 (LOX IMVI melanoma) was 705 nM, the TGI (LOX IMVI melanoma) was 1980 nM and the GI50 (OVCAR-5 ovarian) was 1560 nM. The TGI (OVCAR-5 ovarian) was 3350 nM, the GI50 (MDA-MB-435) was 1010 nM and the TGI (MDA-MB-435) was 2730 nM. For the same compound, the GI50 (EKVX NSCLC) was 1290 nM, the TGI (EKVX NSCLC) was 6740 nM and the GI50 (SNB-75 CNS) was 815 nM. It also gave a TGI (SNB-75 CNS) of 6540 nM, a GI50 (HCT-116 colon) of 565 nM and a TGI (HCT-116 colon) of 1920 nM. For the same compound, the GI50 (K-562 leukemia) was 327 nM, the TGI (K-562 leukemia) was 1710 nM and the GI50 (SNB-19 CNS) was 1170 nM. The TGI (SNB-19 CNS) was 2820 nM, the GI50 (HL-60(TB) leukemia) was 335 nM and the TGI (HL-60(TB) leukemia) was 1570 nM. It also gave a GI50 (786-0 renal) of 226 nM, a TGI (786-0 renal) of 610 nM and a GI50 (SF-539 CNS) of 204 nM. The TGI (SF-539 CNS) was 636 nM, the GI50 (HCC-2998 colon) was 1880 nM and the TGI (HCC-2998 colon) was 4100 nM. The GI50 (NCI-H460 lung) was 672 nM, the TGI (NCI-H460 lung) was 1930 nM and the GI50 (HOP-92 NSCLC) was 1200 nM. It also gave a TGI (HOP-92 NSCLC) of 2660 nM, a GI50 (SR leukemia) of 273 nM and a TGI (SR leukemia) of 1020 nM. For the same compound, the GI50 (NCI-H226 lung) was 1600 nM, the TGI (NCI-H226 lung) was 4130 nM and the GI50 (UO-31 renal) was 576 nM. The TGI (UO-31 renal) was 1870 nM, the GI50 (HOP-62 NSCLC) was 796 nM and the TGI (HOP-62 NSCLC) was 2230 nM. The GI50 (TK-10 renal) was 1790 nM, the TGI (TK-10 renal) was 4060 nM and the GI50 (DU-145 prostate) was 2170 nM. For the same compound, the TGI (DU-145 prostate) was 9200 nM, the GI50 (MALME-3M melanoma) was 1060 nM and the TGI (MALME-3M melanoma) was 2620 nM. The GI50 (UACC-257 melanoma) was 491 nM, the TGI (UACC-257 melanoma) was 1820 nM and the GI50 (KM12 colon) was 1250 nM. The TGI (KM12 colon) was 3150 nM, the GI50 (RPMI-8226 leukemia) was 208 nM and the TGI (RPMI-8226 leukemia) was 618 nM. The GI50 (UACC-62 melanoma) was 389 nM, the TGI (UACC-62 melanoma) was 1500 nM and the GI50 (SK-OV-3 ovarian) was 867 nM. It also gave a TGI (SK-OV-3 ovarian) of 2710 nM, a GI50 (OVCAR-4 ovarian) of 2110 nM and a TGI (OVCAR-4 ovarian) of 8600 nM. It also gave a GI50 (COLO 205 colon) of 1690 nM and a TGI (COLO 205 colon) of 3400 nM.
